Assays:
[1] = system: 23 lung, breast, ovarian, colorectal, and prostate cell lines; experiment: 18 hour viability assay (ATP quantitation); assay type: cell-based; settings: Homo sapiens, 100 nM, range over 23 cell lines, read-out: cell viability relative to DMSO-negative control
[2] = system: solid tumor xenograft panel; experiment: Xenograft pharmacodynamic analysis (immunoblot of tumor lysates); assay type: in vivo, mice; settings: 40 mg/kg, 6 hours post-dosing, high MCL-1:BCL-xL ratio tumors
Method: Each tumor was divided into three parts. Two parts were snap frozen in liquid nitrogen and stored at −80° C. The third part was preserved in 10% neutral buffered formalin for 24 hours then stored in 70% ethanol at ambient temperature. Whole cell lysates from one snap frozen part were prepared by disruption/homogenation at 4° C. in a 2 ml conical-end microfuge tube containing two stainless steel beads ( 5/32″, grade 25, Ball Supply Corp) and 0.4 ml lysis buffer [1% Triton X-100, 30 mM Tris pH 7.4, 1 mM EDTA and protease (complete, mini, EDTA-free, Roche) and phosphatase (PhosSTOP, Roche) cocktail inhibitors] using a Qiagen Lyser II, shaking at 30 Hz for 2 minutes. 200 μl of pre-chilled 3×RIPA (Cell Signaling Technology) containing protease and phosphatase cocktail inhibitors was added to the homogenate, rotated at 4° C. for 10 minutes, and microcentrifuged at 12 kpm for 10 minutes at 4° C. The supernatant was removed, normalized for protein content using a BCA kit (Pierce, Rockford, Ill.) and stored at −80° C. For Western blots, 5 μg of lysate were subjected to SDS-PAGE except for cleaved PARP analysis, which required loading of 0.5 μg of lysate.

CCc1cnn2c(NCc3ccc[n+]([O-])c3)cc(N3CCCC[C@H]3CCO)nc12 [SCH 727965 (Dinaciclib)] was tested, and the viability at 0.1 µM [1] was 23 to 102% and the “apoptosis (cleaved PARP) in tumors” value [2] was “induced apoptosis”.

Source: patent US20150051227A1, “PREDICTIVE BIOMARKER USEFUL FOR CANCER THERAPY MEDIATED BY A CDK INHIBITOR” (Merck Sharp & Dohme Corp., priority 2012, published 2015)
